For one experiment, the system named is 16S rRNA gene pool. Description: Chicken model, qPCR of fecal DNA. It is filed as in vivo, Leghorn chicken. The conditions noted are these: Lc = Lc-Amp group, Amp = Saline-Amp group. The source says: (§1) The chicken model. All procedures were approved by the Institutional Animal Care and Use Committee (protocol No. 2012A00000061, The Ohio State University, Columbus, OH). Leghorn chicken were hatched and maintained at the Ohio Agricultural Research and Development Center (OARDC) poultry research teaching farm (two birds per cage with separate feed and water supply, controlled temperature, filtered air in the room and sterilized feed). Chicken fecal samples were collected on-site and examined for the presence of blaCMY-2 gene pools and microbial profile. Beginning on Day 5 post-hatch, chicken were inoculated with a blaCMY-2^+ E. coli cocktail (0.2 mL/bird, 10^6 CFU/mL) every 24 hours for 4 consecutive days via gavage feeding using 20 ga×1.5 inch animal feeding needle (Fine Science Tools, Foster City, CA, USA). Chickens in non-inoculated control groups were fed with 0.2 mL of saline by the same method. Chickens were then set in cages for 11 days before antibiotic treatment, allowing the microbiota to stabilize.
(§2) Lactobacillus crispatus and antibiotic administration. Lactobacillus crispatus CG-12 was susceptible to ampicillin. To monitor the impact of CG-12 on AR profiles during common ampicillin administration practice, low veterinary Amp dosages (30 mg/kg body weight per day) were selected instead of 300 mg/kg/day. Lactobacillus crispatus CG-12 was administrated in three periods: 1) Day 2 to Day 4 post-hatch; 2) throughout the stabilization; and 3) post-antibiotic challenge on Day 25 to Day 28. During these periods, chickens were inoculated with a Lactobacillus crispatus CG-12 suspension (0.2 mL/bird, 10^6 CFU/mL) every 24 hours for 4 consecutive days via gavage feeding using 20 ga×1.5 inch animal feeding needle (Fine Science Tools, Foster City, CA, USA). Each group contained at least 6 chickens.
(§3) Sample collection. Fresh feces were collected from each chicken on-site in the rearing facility. Fecal samples were collected at the 1st and last day of Lactobacillus inoculation, once a day during the antibiotic administration period, and once every three days during antibiotic withdrawal period up to 14 days from initial antibiotic exposure.
(§4) DNA extraction. Total DNA from chicken fecal samples for real-time quantitative PCR (qPCR) and denaturing gradient gel electrophoresis (DGGE) analyses were extracted according to a published method (Yu and Morrison 2004).
(§5) Real-time quantitative PCR. TaqMan real-time PCR protocol was used to assess blaCMY-2 and 16S rRNA gene pools in total DNA extracted from chicken fecal samples, as described previously (Zhang et al., 2013). […] Each sample was assessed and analyzed in duplicates on a CFX96 system (Bio-Rad, Hercules, CA, USA).
A general note: Quantitative PCR measures a nucleic acid by following its amplification.

The test system of another experiment is blaCMY-2 gene pool. The experiment can be described thus: Chicken model, qPCR of fecal DNA. It is filed as in vivo, Leghorn chicken. The conditions noted are these: Lc = Lc-Amp group, Amp = Saline-Amp group.
Description: as §1, §2, §3, §4, §5

The mark [1] stands for this setting: Day 21, during oral Amp 30 mg/kg/day.

This is an account of results in patent US12558386B2, “Methods and compositions to modulate antibiotic resistance and gastrointestinal microbiota” (OHIO STATE INNOVATION FOUNDATION, priority 2018, dated 2026).

Regarding `CC1(C)S[C@@H]2[C@H](NC(=O)[C@H](N)c3ccccc3)C(=O)N2[C@H]1C(=O)O` [AMP, ampicillin], the “16S rRNA gene pool” value is 8.5±0.7 log10 (gene copies/g) in the experiment on 16S rRNA gene pool (setting [1]) and 10.5±1.0 log10 (gene copies/g) with 16S rRNA gene pool (Day 25, after Amp treatment). Also, the blaCMY-2 gene pool is on record as 8.7±0.8 log10 (gene copies/g) in the experiment on blaCMY-2 gene pool (setting [1]) and 9.8±0.9 log10 (gene copies/g) with blaCMY-2 gene pool (Day 25, after Amp treatment).
